Test results published in PMC7795662, “Alkaloids with Anti-Onchocercal Activity from Voacanga africana Stapf (Apocynaceae): Identification and Molecular Modeling” (Molecules, 2020).

Columns and labels:
[1] = system: Onchocerca ochengi adult female worms; assay: O. ochengi adult female worm viability, MTT/formazan assay; assay type: cell-based
Experimental: (§1) The isolation of O. ochengi adult worms was performed as described previously by Cho-Ngwa et al.. Briefly, fresh pieces of umbilical cattle skin with palpable nodules bought from butchery in Douala, Cameroon were washed, drained and sterilized with 70% ethanol. The worms were carefully scraped out of the nodules as single masses and temporarily submerged in 1 mL complete culture medium, CCM [RPMI-1640 (Sigma-Aldrich, St. Louis, MO, USA) supplemented with 25 mM HEPES, 2 g/L sodium bicarbonate, 2 mM L-glutamine, 5% newborn calf serum (SIGMA, St. Louis, MO, USA), 150 units/mL penicillin, 150 µg/mL streptomycin and 0.5 µg/mL amphotericin B (SIGMA, St. Louis, MO, USA), pH 7.4)] using 24-well plates. The adult worms were incubated in the culture medium overnight in a CO2 incubator, during which period the male worms migrated out of the nodular masses. Only wells containing viable worms received treatment with test compounds. Damaged worms and worms from putrefied nodules were discarded. The viability of worms retained for the assay was ascertained by visual and microscopic examination of adult male worm motility using an inverted microscope.
(§2) The compounds were tested on […] at a single concentration of 30 μM, in duplicate wells. […] The female worms were removed and incubated in 500 μL of 0.5 μg/mL MTT for the last 30 min of incubation. Inhibition of formazan formation from MTT directly correlates with worm death. The worms were blotted on absorbent paper and observed visually for blue coloration against a white background. […] Auranofin at 10 μM, which had previously shown activity against O. ochengi adult worms and Mf, was used as a positive control, while negative control wells received the diluent, 2% DMSO only, previously shown to have no effect on parasite viability. The solvent DMSO (2%) was used as a negative control. […] Furthermore, the toxicity of DMSO decreases with dilution.
(§3) The pure compounds with 100% activity at primary screens were re-tested as described under primary screens, in order to determine the IC50 values. The IC50 assays were performed in triplicate and each experiment repeated for confirmation. The means of all activities at a concentration were calculated and used in the statistical analyses. GraphPadPrism version 6.0 (GraphPad Software, San Diego, CA, USA) was used to generate dose response curves from which the IC50 values were obtained.

[2] = system: Monkey kidney epithelial cells (LLC-MK2); assay: Cytotoxicity on monkey kidney epithelial cells, microscopic; assay type: cell-based; details: Primates, LLC-MK2, 120 h; cytotoxicity, day 5, estimated from morphological deformation; read-out: IC50 Monkey Kidney Cells (LLC-MK2)
Experimental: Monkey kidney epithelial cells (LLC-MK2) (ATCC, Manassas, VA, USA) were cultured at 37 °C in humidified air with 5% CO2 in a Hera Cell-150 incubator (Thermo Electron, Karlsruhe, Germany) until the cell layer was almost confluent. The cell suspension was dispensed into 96-well micro titer plates (200 µL/well) and kept in the incubator for 3–5 days for cells to grow and become fully confluent. These cells served as feeder layers for the Mf assays and were also used for cytotoxicity studies.
Cytotoxicity of the pure compounds with anti-onchocercal activities was assessed on LLC-MK2 cells, microscopically, on day 5 of the Mf assay. Living cells were flattened out and attached to the culture plate, while dead cells were rounded up and detached from the plate. The IC50 values for these cells were estimated from the morphological deformation data.

[3] = system: Onchocerca ochengi adult male worms; assay: O. ochengi adult male worm motility assay, primary and secondary screens; assay type: cell-based; details: Onchocerca ochengi, 24 h, read-out: % Adult Male Worm Motility Reduction after 24 h
[4] = system: Onchocerca ochengi microfilariae; assay: O. ochengi microfilariae (Mf) motility assay, primary and secondary screens; assay type: cell-based
Experimental: Briefly, Mf were prepared using the method described by Cho-Ngwa et al., with slight modifications. A few skin snips were obtained from different locations and incubated in aliquots of culture medium for 15 min, after which the emergent Mf were qualified and quantified using an inverted microscope and standard atlases. The leftover pieces of skin were shaved, rinsed, sterilized with 70% ethanol and sliced into thin slivers. The slivers were incubated in CCM for 2 h, and the emergent highly motile O. ochengi Mf were concentrated by centrifugation. The Mf were transferred to 96-well micro titer plates (15 Mf/100 μL/well) containing a fully confluent LLC-MK2 cell layer in 100 μL of CCM. This was monitored for viability and sterility for 24 h before addition of test and control compounds.
The biological assays were conducted in duplicate in the 96-well microtiter plates. The Mf were incubated with the drug for 120 h in a total of 200 μL of medium. Mf viability was assessed by microscopy once every day and motility inhibition scores were recorded. […] Motility inhibition correlates to drug activity. The positive control drug was amorcazine at 30 μM, and negative control was the diluent (DMSO).
Compounds showing 100% activity in the primary screens were re-tested as described under primary screens to determine the IC50 values. All assays were repeated at least once. The selectivity index (SI) of each extract was calculated as the ratio of the IC50 of the extract on the mammalian cell (termed CC50) to the IC50 on parasites.

[5] = system: Onchocerca ochengi adult male worms; assay: O. ochengi adult male worm motility assay, primary and secondary screens; assay type: cell-based
Experimental: as §1, §2
Adult male worm motility was evaluated with the aid of an inverted microscope.
as §3

Onchocerca ochengi = system: Onchocerca ochengi; design: method as in earlier work; details: from stem bark of V. africana; cited from earlier work
[6] = selectivity index = IC50 on LLC-MK2 cells (CC50) / IC50 on parasites

SMILES: CC[C@H]1CC2CN3CCc4c([nH]c5ccc(OC)cc45)[C@](C(=O)OC)(C2)[C@H]13 (stereo in doubt) [Compound 2, voacangine]
- killing at 30 µM ([1]; Onchocerca ochengi, 120 h, read-out: % Adult Female Worm Death after 120 h): 100%
- activity on adult female worms (in words) ([1]; biochemical assessment at 30 μM): moderately active
- IC100 Adult Female Worm ([1]; secondary screen): >30 µM
- IC50 [2]: ≥ 30 µM
- inhibition at 30 µM [3]: 100%
- inhibition at 30 µM ([4]; Onchocerca ochengi, 24 h, primary screen, 30 μM, read-out: % Mf Motility Reduction after 24 h): 100%
- IC50 ([4]; Onchocerca ochengi, secondary screen, motility, read-out: IC50 Mf): 5.49 µM
- effect on motility of microfilariae (in words) ([4]; dose-dependent manner): inhibit the motility
- IC100 Mf ([4]; secondary screen): 10 µM
- SI Mf [4, 6]: 5.46
- IC50 ([5]; Onchocerca ochengi, read-out: IC50 Adult Male Worm): 9.07 µM
- effect on motility of adult male worms (in words) ([5]; dose-dependent manner): inhibit the motility
- IC100 Adult Male Worm ([5]; secondary screen): 20 µM
- SI Adult Male Worm [5, 6]: 3.30
- activity against Onchocerca ochengi (in words) (Onchocerca ochengi): showing activity
